Results reported in paper PMC10384010, “Chromatographic Data in Statistical Analysis of BBB Permeability Indices” (Membranes, 2023).

Experiments:
[1] = Normal-phase TLC on silica gel 60 F254 (Rf); format: physicochemical; details: water:methanol:acetonitrile 60:20:20, ammonium acetate pH 7.4
[2] = Reversed-phase TLC on RP-2 silanized plates (Rf); format: physicochemical; details: silica gel 60 RP-2 F254 silanized; water:methanol:acetonitrile 60:20:20, ammonium acetate pH 7.4
Method: The purity of the isolated substances was checked by TLC chromatography and densitometric scanning.
APIs were subjected to chromatographic in column (HPLC) and thin layer (TLC) formats. TLC chromatography was carried out on 20 cm × 20 cm glass plates by Merck, covered with silica gel and the addition of a fluorescent indicator. Merck TLC silica gel 60 F254 was used for the normal phase (NP). In the reverse phase (RP), RP-2 silanized plates were used (Merck TLC Silica gel 60 RP-2 F254, silanized). The mobile phase was buffered with ammonium acetate to pH 7.4 (LACH-NER, ammonium acetate).
Plates, after developing the chromatograms, were scanned using a densitometer (Desaga CD 60) with an analytical wavelength selected individually for drugs. The values of Rf (molecular descriptors: NP, RP) were determined.

[3] = HPLC on IAM (immobilized artificial membrane) column, retention factor; format: physicochemical; details: IAM.PC.DD.2 column; for k(IAM) retention factor: 10 mM phosphate buffer pH 7.4:acetonitrile 80:20; for logkIAM: logarithm of retention factor, phosphate buffer pH 7.4:acetonitrile 80:20
Method: Chromatographic data also came from an experiment with a HPLC IAM (immobilized artificial membrane) column (Regis Technologies Inc.: IAM.PC.DD.2, 10 µm; 4.6 mm × 10 mm). The column contains a standard membrane consisting of a phospholipid bilayer. Organic solvents (acetonitrile and methanol) and water (J.T. Baker HPLC) were used in HPLC. Sigma phosphate buffered saline tablets were used to prepare the phosphate buffer. The mobile phase was a mixture of 10 mM phosphate buffer at pH 7.4 and acetonitrile in the ratio of 80:20 (v/v) [35]. The mobile phase flow was set at 0.5 mL/min; detection was carried out with a UV–Vis detector. The obtained values of the retention factor (k IAM) were transformed into a logarithmic form and entered into the statistical analysis (descriptor: log k IAM).

[4] = entering the CNS / not entering the CNS; ref Drugbank [36]; cited from earlier work
[5] = plasma protein binding, given as fraction; ref Drugbank; cited from earlier work

| SMILES | NP (Rf from NP TLC plate) [1] | RP (Rf from RP-2 TLC plate) [2] | k(IAM) retention factor [3] | logkIAM [3] | CNS+/- [4] | PB (protein binding) [5] |
| --- | --- | --- | --- | --- | --- | --- |
| COC(=O)[C@@H]1CC2=CC(=O)CC[C@]2(C)[C@@]23O[C@@H]2C[C@@]2(C)[C@@H](CC[C@@]24CCC(=O)O4)[C@H]13 [eplerenone] | 0.94 | 0.84 | 1.54 | 0.19 | 1 | 0.5 |
| OCCN1CCN(CCC=C2c3ccccc3Sc3ccc(C(F)(F)F)cc32)CC1 [flupenthixol] | 0.51 | 0.66 | 51.21 | 1.71 | 1 | 0.95 |
| Cc1ccc(S(=O)(=O)NC(=O)NN2CC3CCCC3C2)cc1 (stereo not drawn) [gliclazide] | 0.95 | 0.83 | 0.28 | -0.55 | 1 | 0.94 |
| CN1CCC(=C2c3ccccc3CC(=O)c3sccc32)CC1 [ketotifen] | 0.34 | 0.75 | 22.04 | 1.34 | 1 | 0.75 |
| C[C@](N)(Cc1ccc(O)c(O)c1)C(=O)O [methyldopa] | 0.38 | 0.85 | 0.10 | -1.02 | 0 | 0.2 |
| COc1ccnc(C[S+]([O-])c2nc3ccc(OC(F)F)cc3[nH]2)c1OC (stereo not drawn) [pantoprazole] | 0.93 | 0.85 | 2.19 | 0.34 | 0 | 0.98 |
| Fc1ccc([C@@H]2CCNC[C@H]2COc2ccc3c(c2)OCO3)cc1 [paroxetine] | 0.55 | 0.6 | 115.77 | 2.06 | 1 | 0.94 |
| CCC[C@H](N[C@@H](C)C(=O)N1[C@H](C(=O)O)C[C@@H]2CCCC[C@@H]21)C(=O)OCC [perindopril] | 0.47 | 0.57 | 0.18 | -0.76 | 0 | 0.15 |
| CN1C(C(=O)Nc2ccccn2)=C(O)c2ccccc2S1(=O)=O [piroxicam] | 0.98 | 0.58 | 0.16 | -0.79 | 0 | 0.99 |
| CN(C)CCCN1c2ccccc2Sc2ccccc21 [promazine] | 0.39 | 0.51 | 0.10 | -1.02 | 1 | 0.94 |
| CC(CN1c2ccccc2Sc2ccccc21)N(C)C (stereo not drawn) [promethazine] | 0.43 | 0.49 | 14.96 | 1.17 | 1 | 0.93 |
